Here are results for six compounds from paper PMC6328587 (Nature Communications, 2019).

SMILES strings stand for the structures. Values joined by “and” are separate entries in the source; they are usually repeats but may differ in a detail not shown here. Identical values can stand only once.

The target in one assay is T1, p38α (Homo sapiens, UniProt Q16539).
T1 construct: SJFα PROTAC (13-atom linker, amide attachment) selectively degrades p38α; endogenous in cells; host or cells: MDA-MB-231
Description: PROTAC-induced p38α degradation, western blot in MDA-MB-231 cells. Type of assay: cell-based. The settings on record: 0.025-5.0 µM survey, ± one s.d., Supplementary Table 1; for DC50: biological duplicates. As for the experimental part:
(§1) MDA-MB-231 and HeLa cells were obtained from the American Type Culture Collection (ATCC), cultured in RPMI-1640 medium (1 × ) and Dulbecco’s modified Eagle’s medium (DMEM; 1 × ), respectively, containing 10% fetal bovine serum and 1% penicillin–streptomycin and grown in a humidified incubator at 37 °C and 5% CO2.
(§2) […] once with ice-cold PBS (1 × ), followed by lysis in buffer containing 25 mM Tris [pH 7.5], 0.25% sodium deoxycholate, 1% Triton X-100, supplemented with 1X protease inhibitor cocktail (Roche), and phosphatase inhibitors (10 mM NaF, 1 mM Na3VO4, and 20 mM β-glycerophosphate), unless otherwise noted. Lysates were spun at 14,000 × g for 10 min at 4 °C and supernatant was evaluated for protein content using a Pierce BCA Protein Assay (ThermoFisher Scientific). In all experiments, 25–50 μg of protein was loaded onto 10% SDS-PAGE gels or 4–20% Criterion TGX precast gradient gels (Bio-Rad), transferred to nitrocellulose membranes, and probed with the specified antibodies overnight at 4 °C in 1X TBS-Tween (Tris-buffered saline plus 0.02% Tween 20) containing 5% non-fat milk. Immunoblots were visualized using a Bio-Rad ChemiDoc imaging instrument and subsequently processed and quantified using the accompanying Bio-Rad ImageLab software. See Supplementary Figure 8 for uncropped scans of western blots shown in the main text figures.
(§3) Western blot data in Figs. 2, 6, and Supplementary Figures 2, 3 were quantified by using the band feature in Image Lab (Bio-Rad). The p38 values were normalized to the α-tubulin signal to account for differences in protein load, and PROTAC-treated normalized values were expressed as a % of the vehicle-treated (no PROTAC) value, which itself was defined as 100% p38 protein level. […] The sigmoidal fit established both the full extent of degradation, or Dmax at the bottom asymptote of the curve, as well as the DC50, which is the inflection point at which 50% of the total degradation observed was reached.
On the technique in general: In western blotting, separated proteins are transferred to a membrane and probed.

The target of the next assay is T2, p38δ (Homo sapiens, UniProt O15264).
T2 construct: endogenous in cells; host or cells: MDA-MB-231
T2 sequence (O15264 1-365): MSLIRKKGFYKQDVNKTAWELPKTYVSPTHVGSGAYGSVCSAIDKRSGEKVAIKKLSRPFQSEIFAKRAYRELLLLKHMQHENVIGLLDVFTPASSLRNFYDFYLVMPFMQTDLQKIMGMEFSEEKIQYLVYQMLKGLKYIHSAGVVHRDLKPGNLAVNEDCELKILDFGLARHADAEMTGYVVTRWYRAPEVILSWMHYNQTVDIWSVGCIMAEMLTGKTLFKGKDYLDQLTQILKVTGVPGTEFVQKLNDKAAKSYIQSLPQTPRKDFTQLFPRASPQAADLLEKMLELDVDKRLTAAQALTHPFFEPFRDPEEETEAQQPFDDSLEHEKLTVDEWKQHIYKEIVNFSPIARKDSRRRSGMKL
Description: PROTAC-induced p38δ degradation, western blot in MDA-MB-231 cells. The settings on record: 0.025-5.0 µM survey, ± one s.d., Supplementary Table 1; for DC50: biological duplicates. Format: cell-based. On the procedure:
as §1, §2, §3

T1 sequence (Q16539 whole entry): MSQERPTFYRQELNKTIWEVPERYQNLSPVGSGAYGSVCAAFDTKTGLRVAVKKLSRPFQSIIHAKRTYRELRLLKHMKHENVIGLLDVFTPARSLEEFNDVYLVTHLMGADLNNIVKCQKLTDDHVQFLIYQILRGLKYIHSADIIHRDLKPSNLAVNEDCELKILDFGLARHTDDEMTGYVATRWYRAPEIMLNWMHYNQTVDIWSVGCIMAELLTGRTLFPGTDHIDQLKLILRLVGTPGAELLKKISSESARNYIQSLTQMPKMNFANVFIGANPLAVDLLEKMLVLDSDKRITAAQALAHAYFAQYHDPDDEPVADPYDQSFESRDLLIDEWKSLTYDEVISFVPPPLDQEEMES

Take `COc1cc2c(Oc3ccc(NC(=O)C4(C(=O)Nc5ccc(F)cc5)CC4)cc3F)ccnc2cc1OCCCOCCCOCCC(=O)N[C@H](C(=O)N1C[C@H](O)C[C@H]1C(=O)NCc1ccc(-c2scnc2C)cc1)C(C)(C)C`: the values for the DC50 on p38α and on p38δ were 230 ± 47 nM and 456 ± 362 nM, respectively. For the same compound, at p38α, the “Dmax p38α (maximum percentage of degradation)” value was 90.1 ± 4.2%.
For `COc1cc2c(Oc3ccc(NC(=O)C4(C(=O)Nc5ccc(F)cc5)CC4)cc3F)ccnc2cc1OCCCOCCOCCCOc1cc(-c2scnc2C)ccc1CNC(=O)C1CC(O)CN1C(=O)C(C(C)C)N1Cc2ccccc2C1=O` (centres unmarked) [BES-4612], on p38α, the DC50 came to 760 ± 1500 nM and the “Dmax p38α (maximum percentage of degradation)” value was 16.8 ± 13.4%. Moreover, on p38δ, half-maximal degradation (DC50) was put at 1890 ± 2350 nM and the “Dmax p38δ (maximum percentage of degradation)” value worked out at 78.7 ± 40.8%.
In the case of `COc1cc2c(Oc3ccc(NC(=O)C4(C(=O)Nc5ccc(F)cc5)CC4)cc3F)ccnc2cc1OCCCCOCCCCOc1cc(-c2scnc2C)ccc1CNC(=O)C1CC(O)CN1C(=O)C(C(C)C)N1Cc2ccccc2C1=O` (centres unmarked) [SJF-6677], on p38α, the DC50 came to 127 ± 163 nM; the “Dmax p38α (maximum percentage of degradation)” value was < 50% and 25.3 ± 6.6%. Besides, on p38δ, it took 106 ± 81.5 nM to reach half-maximal degradation (DC50); the “Dmax p38δ (maximum percentage of degradation)” value was < 50% and 43.5 ± 7.2%.
On to `COc1cc2c(Oc3ccc(NC(=O)C4(C(=O)Nc5ccc(F)cc5)CC4)cc3F)ccnc2cc1OCCCOCCCOCCCOc1cc(-c2scnc2C)ccc1CNC(=O)C1CC(O)CN1C(=O)C(C(C)C)N1Cc2ccccc2C1=O` (centres unmarked) [SJF-6685], for which it took 304 ± 691 nM to reach half-maximal degradation at p38α (DC50). For the same compound, at p38δ, the DC50 came to 1140 ± 1950 nM and the “Dmax p38δ (maximum percentage of degradation)” value came to 33.5 ± 27.2%.
Consider `COc1cc2c(Oc3ccc(NC(=O)C4(C(=O)Nc5ccc(F)cc5)CC4)cc3F)ccnc2cc1OCCCOCCOCCC(=O)N[C@H](C(=O)N1C[C@H](O)C[C@H]1C(=O)NCc1ccc(-c2scnc2C)cc1)C(C)(C)C` [SJF-6690], for which the “Dmax p38α (maximum percentage of degradation)” value on p38α came out at 99.4 ± 2.0%. In addition, on p38δ, the DC50 is < 100 nM and 91.7 nM; the “Dmax p38δ (maximum percentage of degradation)” value came to 96.7 ± 3.7%.
On to `COc1cc2c(Oc3ccc(NC(=O)C4(C(=O)Nc5ccc(F)cc5)CC4)cc3F)ccnc2cc1OCCOCCOCCC(=O)N[C@H](C(=O)N1C[C@H](O)C[C@H]1C(=O)NCc1ccc(-c2scnc2C)cc1)C(C)(C)C` [SJF-6693], for which the “Dmax p38α (maximum percentage of degradation)” value at p38α is 92.6 ± 2.8%. In addition, at p38δ, the DC50 is < 100 nM and 51.4 nM; the “Dmax p38δ (maximum percentage of degradation)” value was 81.8 ± 1.9%.

For orientation: DC50 means the midpoint of the concentration-degradation curve. Read a low DC50 as degradation at low concentration.
